# Entries after “also recorded” stand apart in the source; their conditions may differ.
# Legend:
# all cell types examined = test: DNA synthesis, all cell types examined, higher concentrations; type: cell-based; conditions: >10 μM, all cell types examined (not shown)
# Description: C6 rat glioma cells were plated in 96-well plates (Nunc, Denmark) (5000 cells per well) in DMEM with 5% FCS. After 6 hours the cells were rinsed and incubated for 48 hours in serum free medium. 5% FCS or growth factors were then added to the cells for 24 hours (triplicates). ^3 H-methyl-thymidine (5μCi/ml) (Rotem Ind. Ltd., Israel) was added to the cells for the last 14 hours. The cells were rinsed with 100 μl methanol for 10 minutes, followed by 200 μl 5% trichloroacetic acid, and then rinsed and lysed with 150 μl 0.3M NaOH. Radioactive thymidine incorporated into the DNA was determined for 1 min with 3 ml scintillation liquid (ULTIMA GOLD Packard) in a β-counter. DNA synthesis assays were performed in triplicates.
# Bovine capillary endothelial cells (BCE) and bovine aortic BSMC were plated in 24-well plates (6000 cells per well) in 500 μl DMEM medium supplemented with 10% Colorado calf serum (CCS) (GIBCO, USA) and GPS. After 24 hours, medium was changed to starvation medium (2% CCS, 0.5% BSA, GPS) for 24 hours. ^3 H-methyl-thymidine (5 μCi/ml) was added for the last 6 hours. DNA synthesis assays were performed as described above, in triplicates. […]
# Disulfiram was prepared in 0.1 mM stock solutions in DMSO. […] Inhibition was calculated as percentage of DNA synthesis of control.
# endothelial cells = test: Cell rounding, capillary endothelial cells; type: cell-based, bovine
# Description: Capillary endothelial cells were grown during 48 hours to 40-50% confluency and disulfiram was then added to the cells for 20 hours as described in section (g) of "Materials and Methods" above. […] The abundance of apoptotic cells was dose-dependent.
# 3T3 fibroblasts = test: Cell rounding, 3T3 fibroblasts; type: cell-based; conditions: 1 μM
# C6 glioma cells = test: Cell rounding, C6 glioma cells; type: cell-based, rat; conditions: 2 μM
# BSMC = test: TUNEL assay for apoptosis, BSMC; type: cell-based, bovine; conditions: 1 μM, 6 hours
# Description: Cells were cultured on microscope slides for 48 hours in presence of growth media as described above, until reaching 40-50% confluency. Disulfiram was then added to the cells for 6 hours or for 20 hours in the case of BALB/MK keratinocytes, fixed with 4% paraformaldehyde and washed three times with PBS. Apoptosis was analyzed by the in situ TUNEL staining carried out as described (Wride, 1994). Briefly, microscope slides were incubated for 15 min in 2×SSC buffer at 60° C., washed in DDW and incubated with 20 μg/ml proteinase K (Boehringer Mannheim) for 15 min at room temperature. After a wash with DDW, endogenous peroxidases were inactivated by incubating the slides with 2% H2 O2 in PBST (PBS with 0.05% Tween 20) for 10 min at room temperature. Slides were then incubated in TdT buffer (Boehringer Mannheim) for 5 min at room temperature, and a reaction mixture containing 5×TdT buffer and 1 μl biotin-21-dUTP (Clontech, 1 mM stock) and 8 units of the TdT enzyme (Boehringer Mannheim) in total volume of 50 μl was subsequently added. The reactions were carried out at 37° C. for 1.5 hr in a humid chamber. The slides were washed in 2×SSC, DDW and finally with PBS and covered with 10% skim milk in PBST for 15 min. […]
# C6 rat glioma tumor = test: Growth of C6 glioma tumors in nude mice; type: in vivo, CD1 nude male mice; C6 rat glioma cells; conditions: 30 days; for Tumor weight / % inhibition (tumor growth): per os 3 times per week; for Tumor weight: n=8, mean ± SEM, control 1.37 ± 0.21
# Description: C6 rat glioma cells (10^6) were injected subcutaneously into the back of the neck of CD1 nude male mice. After 3 days, 1 ml of aqueous solutions with or without 0.1-0.5 mM disulfiram (25-120 μg) was introduced per os to the mice using a feeding needle. Mice were orally fed three times per week. Tumors were removed 30 days following C6 cells injection, weighed, fixed in buffered formalin and histological sections were prepared. Each experimental group included 8 animals, and experiments were repeated twice.
# Tumors from mice fed systemically 3 times a week with disulfiram were weighed 30 days following administration of C6 rat glioma cells to CD1 nude mice. […] Experiments were repeated twice (n=8).
# oxidases = conditions: cited from earlier work
# dopamine-β-hydroxylases = conditions: cited from earlier work
# aldolases = conditions: cited from earlier work
# superoxide dismutase = conditions: in vivo; cited from earlier work
# Meth A tumor cell = conditions: together with ascorbic acid, in vitro; cited from earlier work
# [1] = test system: neoplasia of the large bowl; conditions: 1,2-dimethylhydrazine; cited from earlier work
# [2] = test system: neoplasia of the forestomach; conditions: benzo(a)pyrene, mice; cited from earlier work
# [3] = test system: metabolism of the carcinogen azomethane; conditions: cited from earlier work
# [4] = test system: Sarcoma 180, EL-4 leukemia or L1210 murine leukemia; conditions: cited from earlier work
# cisplatin nephrotoxicity = conditions: humans; cited from earlier work
# [5] = test system: toxic side effects of HECNU; conditions: rats; cited from earlier work
# rats = conditions: 0.05% in diet for 2 years; cited from earlier work
# [6] = ingested or injected intraperitoneally; cited from earlier work
# other tissues = test: Tissue damage on systemic administration; conditions: 25-60 μg/mouse systemically
structure (smiles),measurement,setting,value
"CCN(CC)C(=S)SSC(=S)N(CC)CC [disulfiram, Bis(diethylthiocarbamoyl) disulfide]",inhibition at higher concentrations,all cell types examined,became less inhibitory
same,cell rounding,endothelial cells,quickly became rounded
same,cell rounding,3T3 fibroblasts,did not change their shape to the rounded form
same,cell rounding,C6 glioma cells,did not change their shape to the rounded form
same,apoptosis by TUNEL method,BSMC,not labeled; also recorded: did not induce
same,Tumor weight,"C6 rat glioma tumor; 25 μg, p = 0.003",0.59 ± 0.08 g
same,% inhibition (tumor growth),"C6 rat glioma tumor; 25 μg/mouse, p = 0.003",57%
same,Tumor weight,"C6 rat glioma tumor; 120 μg, p < 0.05",0.84 ± 0.18 g
same,% inhibition (tumor growth),"C6 rat glioma tumor; 120 μg/mouse, p < 0.05",38%
same,tumor size compared with water-fed control (in words),"C6 rat glioma tumor; fed 3 times a week, n=8",significantly smaller
same,inhibition of oxidases,oxidases,inhibit
same,inhibition of dopamine-β-hydroxylases,dopamine-β-hydroxylases,inhibit
same,inhibition of aldolases,aldolases,inhibit
same,inhibition of superoxide dismutase,superoxide dismutase,inhibited superoxide dismutase
same,inhibition of Meth A tumor cell proliferation,Meth A tumor cell,augmented inhibition
same,interference with neoplasia of the large bowl,[1],interfere with induction of cancer
same,interference with neoplasia of the forestomach,[2],interfere with induction of cancer
same,inhibition of azomethane metabolism,[3],inhibited the metabolism
same,effect on anti-tumor activity of ifosfamide and cyclophosphamide,[4],without compromising their anti-tumor activity
same,protection against cisplatin nephrotoxicity,cisplatin nephrotoxicity,did not show any protection
same,effect on anti-tumor potency of HECNU,[5],without inhibiting its anti-tumor potency
same,protection against toxic side effects of HECNU,[5],protected rats
same,increase of any tumor type,rats,did not increase any tumor type
same,distribution throughout the body,[6],extensively distributed throughout the body including the brain
same,damage in other tissues,other tissues,no evidence for damage in other tissues

# From US6288110A, “Pharmaceutical compositions comprising disulfiram” (Yeda Research and Development Co Ltd., priority 1998, dated 2001)
